Assay results as given in ChEMBL document CHEMBL4219062, “Design, synthesis and evaluation of γ-turn mimetics as LSD1-selective inhibitors” (Bioorg Med Chem, 2018).
Active and inactive are the calls of the source. The rule behind the calls is not given here.

How the values were obtained:
A549 [1] = assay: cells; conditions: Homo sapiens, A549, 72 h, read-out: GI
A549 [2] = assay: cells; conditions: Homo sapiens, A549, 72 h
Description: Growth inhibition of human A549 cells after 72 hrs by Alamarblue assay

[3] = target: T1, Amine oxidase [flavin-containing] A (Homo sapiens, UniProt P21397); assay: biochemical
T1 sequence (P21397 whole entry): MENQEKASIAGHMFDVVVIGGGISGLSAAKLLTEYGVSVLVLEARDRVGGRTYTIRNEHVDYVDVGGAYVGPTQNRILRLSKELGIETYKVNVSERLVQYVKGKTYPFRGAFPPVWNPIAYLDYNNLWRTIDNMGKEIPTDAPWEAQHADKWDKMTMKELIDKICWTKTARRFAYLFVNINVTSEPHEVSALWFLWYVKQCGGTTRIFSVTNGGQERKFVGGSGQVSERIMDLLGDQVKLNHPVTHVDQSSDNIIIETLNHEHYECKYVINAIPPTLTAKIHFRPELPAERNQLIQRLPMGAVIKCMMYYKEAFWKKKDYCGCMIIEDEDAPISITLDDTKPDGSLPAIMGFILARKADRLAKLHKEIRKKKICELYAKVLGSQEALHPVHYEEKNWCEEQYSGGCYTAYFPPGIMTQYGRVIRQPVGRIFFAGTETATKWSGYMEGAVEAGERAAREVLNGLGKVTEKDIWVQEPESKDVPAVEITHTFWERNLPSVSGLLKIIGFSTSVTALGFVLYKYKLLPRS
Description: Inhibition of recombinant human MAO-A expressed in baculovirus infected BTI insect cells using (4S)-4,5-dihydro-2-(6-hydroxybenzothiazolyl)-4-thiazolecarboxylic acid as substrate measured after 60 mins by chemiluminescence assay

[4] = target: T2, Amine oxidase [flavin-containing] B (Homo sapiens, UniProt P27338); assay: biochemical
T2 sequence (P27338 whole entry): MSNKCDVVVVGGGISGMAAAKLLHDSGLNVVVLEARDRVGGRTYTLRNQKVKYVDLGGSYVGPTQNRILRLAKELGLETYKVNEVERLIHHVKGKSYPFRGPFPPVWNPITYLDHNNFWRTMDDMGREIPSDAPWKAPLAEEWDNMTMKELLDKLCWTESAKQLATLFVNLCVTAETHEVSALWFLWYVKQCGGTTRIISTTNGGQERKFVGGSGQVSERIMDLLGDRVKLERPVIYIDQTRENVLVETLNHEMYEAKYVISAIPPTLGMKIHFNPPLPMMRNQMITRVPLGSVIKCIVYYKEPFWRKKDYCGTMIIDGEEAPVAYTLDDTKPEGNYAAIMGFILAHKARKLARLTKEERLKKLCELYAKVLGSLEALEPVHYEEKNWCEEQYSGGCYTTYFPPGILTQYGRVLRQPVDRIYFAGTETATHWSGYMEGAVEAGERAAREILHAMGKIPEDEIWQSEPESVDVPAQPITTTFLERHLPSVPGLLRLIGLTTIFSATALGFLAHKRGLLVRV
Description: Inhibition of recombinant human MAO-B expressed in baculovirus infected BTI insect cells using (4S)-4,5-dihydro-2-(6-hydroxybenzothiazolyl)-4-thiazolecarboxylic acid as substrate measured after 60 mins by chemiluminescence assay

A549 [5] = conditions: Homo sapiens, 10 uM
A549 [6] = assay: Cell cycle arrest in human A549 cells assessed as increase in G1 population at 2 uM measured after 24 hrs by propidium iodide staining based flow cytometric analysis; assay type: functional
A549 [7] = assay: Cell cycle arrest in human A549 cells assessed as decrease in S population at 2 uM measured after 24 hrs by propidium iodide staining based flow cytometric analysis; assay type: functional
A549 [8] = assay: Cell cycle arrest in human A549 cells assessed as accumulation at sub-G1 population at 6 to 8 uM by propidium iodide staining based flow cytometric analysis; assay type: functional; conditions: TDE = time-dependent effect

## O=C(N[C@@H](CCCCN[C@@H]1C[C@H]1c1ccccc1)C(=O)NCc1cccc(Cl)c1)c1ccc(-c2ccccc2)cc1
A549 [1]
  inhibition of growth at 10 µM: 100%
A549 [2]
  GI50: 8.6 µM
[3]
  IC50: > 100 µM
[4]
  IC50: > 100 µM

## O=C(N[C@@H](CCCCN[C@@H]1C[C@H]1c1ccccc1)C(=O)NCc1ccccc1)c1ccccc1
A549 [5]
  growth inhibition (GI): inactive

## CNS(=O)(=O)c1cccc(-c2ccc([C@@H]3C[C@H]3NCCCCC3C(=O)N(Cc4ccccc4)CCN(c4ccccc4)C3=O)cc2)c1 (relative stereo)
A549 [1]
  inhibition of growth at 10 µM: 16%

## O=C1C(CCCCN[C@@H]2C[C@H]2c2ccccc2)C(=O)N(c2ccc(-c3ccccc3)cc2)CCN1Cc1cccc(Cl)c1 (relative stereo)
A549 [6]
  Activity: Active
A549 [7]
  Activity: Active
A549 [8]
  Activity: Tde
A549 [1]
  inhibition of growth at 10 µM: 100%
A549 [2]
  GI50: 5.8 µM
[3]
  IC50: > 100 µM
[4]
  IC50: > 100 µM

## CNC(=O)c1cccc(-c2ccc([C@@H]3C[C@H]3NCCCCC3C(=O)N(Cc4cccc(Cl)c4)CCN(c4ccc(-c5ccccc5)cc4)C3=O)cc2)c1 (relative stereo)
A549 [1]
  inhibition of growth at 10 µM: 26%

## CNC(=O)c1cccc(-c2ccc([C@@H]3C[C@H]3NCCCCC3C(=O)N(Cc4ccccc4)CCN(c4ccccc4)C3=O)cc2)c1 (relative stereo)
A549 [1]
  inhibition of growth at 10 µM: 26%

## COc1cccc(-c2ccc([C@@H]3C[C@H]3NCCCCC3C(=O)N(Cc4ccccc4)CCN(c4ccccc4)C3=O)cc2)c1 (relative stereo)
A549 [1]
  inhibition of growth at 10 µM: 16%
